*1 amine or outer side, *2 acyl side, *3 side chain or, on linkers, in order; H or OH if unused. Where a SMILES comes first, the peptide text is derived from it. Bridges are numbered along the chain shown (N, C = ends). [ ]: non-standard residue; d: D form. The star is where a group is joined. X14 = NC(=O)[C@H](CCCCNC(=O)CN1CCN2CCN3CCN(CC1)CC(=O)[O][In]([O]C(=O)C2)[O]C(=O)C3)NC(=O)CCC(=O)NCCCOCCOCCOCCCN*; X5 = NC(=O)[C@H](CCCCNC(=O)CN1CCN(CC(=O)O)CCN(CC(=O)O)CCN(CC(=O)O)CC1)NC(=O)CCC(=O)NCCCOCCOCCOCCCN*; NH(1-deoxy-D-glucityl) = OC[C@@H](O)[C@@H](O)[C@H](O)[C@@H](O)CN*; DOTA = O=C(O)CN1CCN(CC(=O)O)CCN(CC(=O)*)CCN(CC(=O)O)CC1; Trp(5-Cl) = N[C@@H](Cc1c[nH]c2ccc(Cl)cc12)C(=O)O; Pyridine(2,6-diCH2) = c1cc(C[*:1])nc(C[*:2])c1; Pro(4R-NH2) = N[C@H]1CN[C@H](C(=O)O)C1; 1Nal = N[C@@H](Cc1cccc2ccccc12)C(=O)O; mXylylene = c1cc(C[*:1])cc(C[*:2])c1; Glutaryl = O=C(CCCC(=O)[*:2])[*:1]; X1 = O=C(CN1CCC(N[*:1])CC1)[*:2]; tBuAla = CC(C)(C)C[C@H](N)C(=O)O; Suc = O=C(CCC(=O)[*:2])[*:1]; X30 = NCCNCC(CNCCN)C(=O)*; Api = NC1(C(=O)O)CCNCC1; Aib = CC(C)(N)C(=O)O
molecular target: T1, GIPR (CHO-K1-hGIPR cells) (Homo sapiens, UniProt P48546); assay: FACS binding assay; details: competition with 20 nM GIP-057, 4° C., 1 hour, read-out: pIC50 Category (converted)
T1 construct: host or cells: CHO-K1
T1 sequence (P48546 22-466): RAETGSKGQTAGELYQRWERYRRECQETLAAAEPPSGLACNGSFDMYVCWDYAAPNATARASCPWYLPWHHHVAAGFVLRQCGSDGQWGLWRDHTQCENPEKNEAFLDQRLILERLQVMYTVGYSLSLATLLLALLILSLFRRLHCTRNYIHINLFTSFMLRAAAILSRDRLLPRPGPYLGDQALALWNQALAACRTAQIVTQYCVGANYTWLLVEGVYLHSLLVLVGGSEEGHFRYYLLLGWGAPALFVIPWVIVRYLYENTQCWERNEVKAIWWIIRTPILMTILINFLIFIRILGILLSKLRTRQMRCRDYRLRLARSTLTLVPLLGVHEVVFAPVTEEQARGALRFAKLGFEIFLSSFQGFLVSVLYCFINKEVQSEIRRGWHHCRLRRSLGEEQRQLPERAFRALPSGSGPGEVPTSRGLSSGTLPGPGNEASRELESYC
Outline: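 Read-out: flow cytometric median fluorescence intensity, APC/Cy5 channel, plotted vs peptide conc.; 4PL fit → EC50/pEC50 or IC50/pIC50. Cells: CHO-K1-hGIPR, Accutase-detached, 500.000/mL in PBS + 1% FCS. Detection: APC-streptavidin 1 μg/mL, 30 min, on ice.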

CC[C@H](C)[C@@H]1NC(=O)[C@H](CC(C)C)NC(=O)C2(CCN(C(=O)C(CNCCN)CNCCN)CC2)NC(=O)[C@@H](NC(=O)[C@@H](CC(C)C)NC(=O)[C@H](CCC(=O)O)NC(=O)[C@@H]2C[C@@H](N)CN2C(=O)[C@H](Cc2c[nH]c3ccc(Cl)cc23)NC(=O)[C@H](Cc2c[nH]c3ccccc23)NC(=O)[C@H](CC(=O)O)NC(=O)CCCC(=O)NC[C@H](O)[C@@H](O)[C@H](O)[C@H](O)CO)CSCc2cccc(n2)CSC[C@@H](C(=O)NC2CCN(CC(=O)N[C@H](CCC(=O)NC[C@H](O)[C@@H](O)[C@H](O)[C@H](O)CO)C(N)=O)CC2)NC1=O [GIP-030, AGLU-Glutar-Asp-Trp-5Clw-Tap-Glu-leu-[Cys(2Lut)-Apc(N4Ac)-Leu-Ile-Cys]-APAc-glu(AGLU)-NH2] ({NH(1-deoxy-D-glucityl)-Glutaryl}-DW[Trp(5-Cl)][Pro(4R-NH2)]E[dL]C[Api](X30)LIC[X1][dE](NH(1-deoxy-D-glucityl))-NH2; linker 7-11 via Pyridine(2,6-diCH2)) and CC[C@H](C)[C@@H]1NC(=O)[C@H](CC(C)C)NC(=O)C2(CCN(C(=O)CN3CCN(CC(=O)O)CCN(CC(=O)O)CCN(CC(=O)O)CC3)CC2)NC(=O)[C@@H](NC(=O)[C@@H](CC(C)C)NC(=O)[C@H](CCC(=O)O)NC(=O)[C@@H]2C[C@@H](N)CN2C(=O)[C@H](Cc2c[nH]c3ccc(Cl)cc23)NC(=O)[C@H](Cc2c[nH]c3ccccc23)NC(=O)CCC(=O)O)CSCc2cccc(n2)CSC[C@@H](C(=O)NC2CCN(CC(=O)N[C@H](CCC(=O)NC[C@H](O)[C@@H](O)[C@H](O)[C@H](O)CO)C(N)=O)CC2)NC1=O [GIP-023, HO-Succinyl-Trp-5Clw-Tap-Glu-leu-[Cys(2Lut)-Apc(DOTA)-Leu-Ile-Cys]-APAc-glu(AGLU)-NH2] (Suc-W[Trp(5-Cl)][Pro(4R-NH2)]E[dL]C[Api](DOTA)LIC[X1][dE](NH(1-deoxy-D-glucityl))-NH2; linker 6-10 via Pyridine(2,6-diCH2)) cannot be ordered by IC50: under 10 nM for the first, under 10 nM for the second.

Compared with CC[C@H](C)[C@@H]1NC(=O)[C@H](CC(C)C)NC(=O)C(C)(C)NC(=O)[C@@H](NC(=O)[C@@H](CC(C)C)NC(=O)[C@H](CCC(=O)O)NC(=O)[C@@H]2CCCN2C(=O)[C@H](Cc2c[nH]c3ccc(Cl)cc23)NC(=O)[C@H](Cc2c[nH]c3ccccc23)NC(=O)[C@H](CC(=O)O)NC(=O)CCC(=O)NCCCOCCOCCOCCCNC(=O)CN2CCN(CC(=O)O)CCN(CC(=O)O)CCN(CC(=O)O)CC2)CNCc2cccc(c2)CSCCNC1=O [GIP-092, DOTA-Ttds-Asp-Trp-5Clw-Pro-Glu-leu-[Dap(3MeBn)-Aib-Leu-Ile-AET]], CC[C@H](C)[C@@H]1NC(=O)[C@H](CC(C)(C)C)NC(=O)C(C)(C)NC(=O)[C@@H](NC(=O)[C@H](CC(C)C)NC(=O)[C@H](CCC(=O)O)NC(=O)[C@@H]2CCCN2C(=O)[C@H](Cc2c[nH]c3ccccc23)NC(=O)[C@H](Cc2c[nH]c3ccccc23)NC(=O)[C@H](CC(=O)O)NC(C)=O)CSCc2cccc(c2)CSC[C@@H](C(=O)NCCCOCCOCCOCCCNC(=O)CCC(=O)N[C@@H](CCCCNC(=O)CN2CCN(CC(=O)O)CCN(CC(=O)O)CCN(CC(=O)O)CC2)C(N)=O)NC1=O [GIP-133, Ac-Asp-Trp-Trp-Pro-Glu-Leu-[Cys(3MeBn)-Aib-Npg-Ile-Cys]-Ttds-Lys(DOTA)-NH2] (Ac-DWWPELC[Aib][tBuAla]IC-X5; linker 7-11 via mXylylene) is higher in IC50: under 10 nM for the first, 10 to 79.4 nM for the second.

Compared with CC(=O)N[C@@H](CC(=O)O)C(=O)N[C@@H](Cc1c[nH]c2ccccc12)C(=O)N[C@@H](Cc1cccc2ccccc12)C(=O)N1CCC[C@H]1C(=O)N[C@@H](CCC(=O)O)C(=O)N[C@H](CC(C)C)C(=O)N[C@H]1CSCc2cccc(c2)CSC[C@@H](C(=O)NCCCOCCOCCOCCCNC(=O)CCC(=O)N[C@@H](CCCCNC(=O)CN2CCN(CC(=O)O)CCN(CC(=O)O)CCN(CC(=O)O)CC2)C(N)=O)NC(=O)[C@H](C(C)C)NC(=O)[C@H](CC(C)C)NC(=O)[C@H](C)NC1=O [GIP-138, Ac-Asp-Trp-1Ni-Pro-Glu-leu-[Cys(3MeBn)-Ala-Leu-Val-Cys]-Ttds-Lys(DOTA)-NH2] (Ac-DW[1Nal]PE[dL]CALVC-X5; linker 7-11 via mXylylene), CC[C@H](C)[C@@H]1NC(=O)[C@H](CC(C)C)NC(=O)C(C)(C)NC(=O)[C@@H](NC(=O)[C@@H](CC(C)C)NC(=O)[C@H](CCC(=O)O)NC(=O)[C@@H]2CCCN2C(=O)[C@H](Cc2c[nH]c3ccc(Cl)cc23)NC(=O)[C@H](Cc2c[nH]c3ccccc23)NC(=O)[C@H](CC(=O)O)NC(C)=O)CSCc2cccc(c2)CSC[C@@H](C(=O)NCCCOCCOCCOCCCNC(=O)CCC(=O)N[C@@H](CCCCNC(=O)CN2CCN3CCN4CCN(CC2)CC(=O)[O][In]([O]C(=O)C3)[O]C(=O)C4)C(N)=O)NC1=O [GIP-164, Ac-Asp-Trp-5Clw-Pro-Glu-leu-[Cys(3MeBn)-Aib-Leu-Ile-Cys]-Ttds-Lys(InDOTA)-NH2] (Ac-DW[Trp(5-Cl)]PE[dL]C[Aib]LIC-X14; linker 7-11 via mXylylene) is lower in IC50: 10 to 79.4 nM for the first, under 10 nM for the second.
